According to patent US12285393B2, “Roles of modulators of intersectin-Cdc42 signaling in Alzheimer's disease” (priority 2017, dated 2025):

Molecular target: Cdc42 (Homo sapiens, UniProt P60953)
Experiment: Cdc42-GEF-assay, additional compound screening
Format: biochemical
Set-up: purchased Cytoskeleton Inc
Details: percentages of ZCL278 activity normalized to batch; more than 100% = more potent activator; Table 9
Experimental: Rho-GEF IC50 Assay: Rho-GEF assay (Cytoskeleton Inc., Denver, Colorado, United States of America) was conducted per manufacturer's instructions (λex=360 nm, λem=460 nm). Briefly, a solution (50 μL) of purified Rho GTPase (1 μM) and mant-GTP (1.5 μM) with or without compound (0.001-500 μM) was prepared and the absorbance monitored for 10-30 min to obtain the background/baseline. The addition of purified GEF/DH domain (0.08-0.2 μM) was carried out simultaneously and the absorbance was recorded for 30-45 min. The linear slope following the addition of the GEF was calculated and expressed as percentage of the control and plotted on an IC50 curve.
Cdc42 (1 μM) was incubated with mant-GTP (1.5 μM) and varying concentrations of ZCL278, ZCL279, or ZCL367 (5-500 μM). Fluorescent readings were taken every minute for 10 m to acquire the baseline. The GEF/DH domain (0.08-0.2 μM) was added followed by readings taken every minute for another 30 m. The linear phase was calculated from within the time period of 12-22 m. Cdc42 (1 μM) was incubated with mant-GTP (1.5 μM) and varying concentrations of ZCL278, ZCL279, or ZCL367 (5-500 μM). Fluorescent readings were taken every minute for 30 m to monitor the binding of mant-GTP in the absence of GEF/DH domain.
Cdc42-GEF-assays were conducted on additional screening compounds in batches of 9 compounds per batch as described above in Example 2 using ZCL278 and ZCL367 as standards. Screening compounds were taken from the Specs Chemistry Database of 197,000 compounds for small molecule or the National Cancer Institute Compound Library. […] These compounds promote Cdc42-mantGTP binding without GEF. It is possible that these compounds can inhibit Cdc42-mantGTP binding with GEF. […] These compounds appear to have activity like ZCL279. […] However, upon the addition of GEF, the compounds appear to facilitate the binding of mantGTP to Cdc42 (high assay slope, relative to ZCL278)

Cdc42, sequence (P60953 whole entry): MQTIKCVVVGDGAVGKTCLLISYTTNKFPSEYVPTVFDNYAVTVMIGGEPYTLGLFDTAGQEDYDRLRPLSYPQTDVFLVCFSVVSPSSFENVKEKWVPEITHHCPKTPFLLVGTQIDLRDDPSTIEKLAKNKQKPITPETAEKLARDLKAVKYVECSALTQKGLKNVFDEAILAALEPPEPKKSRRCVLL

In the case of `Cc1cc(C)nc(NS(=O)(=O)c2ccc(NC(=S)NC(=O)COc3ccc(Br)cc3Cl)cc2)n1` [ZCL278, 4-(3-(2-(4-bromo-2-chloro-phenoxy)-acetyl)-thioureido)-N-(4,6-dimethylpyrimidin-2-yl)-benzenesulfonamide], the “% ZCL278 (activator activity)” value is reported as 100%.
